{"source": "patent US12491188B2", "about": "“Small molecule PARG inhibitors and methods of use thereof” (Board of Regents, The University of Texas System, priority 2019, dated 2025)", "key": {"[1]": {"biological_target": "PCNA in PC3 cells (Homo sapiens (Human), UniProt P12004)", "sequence (P12004 whole entry)": "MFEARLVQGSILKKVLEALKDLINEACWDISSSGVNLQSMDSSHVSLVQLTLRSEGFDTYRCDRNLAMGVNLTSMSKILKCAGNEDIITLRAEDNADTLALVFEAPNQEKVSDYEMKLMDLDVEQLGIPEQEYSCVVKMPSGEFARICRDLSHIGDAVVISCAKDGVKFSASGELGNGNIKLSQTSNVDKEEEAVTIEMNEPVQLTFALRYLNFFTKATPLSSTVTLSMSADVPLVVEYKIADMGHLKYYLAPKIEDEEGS", "test": "Cellular thermal shift assay (CETSA), PCNA control", "assay_type": "cell-based", "details": "10 μM, 2 h", "description": "(§1) PC3 cells treated with 10 μM JA2131 or DMSO were temperature shocked as described in the Examples and the resulting non-aggregated proteins were analyzed with Anti-PARG or Anti-PCNA antibody. Anti-Histone H3 was used as loading control.\n(§2) Cellular thermal shift assay (CETSA). CETSA was performed as described in Molina et al., 2013. Briefly, PC3 cells were treated with 10 μM JA2131 or an equivalent volume of DMSO for 2 h, washed three times with PBS and extracted for total cell lysate. 10% glycerol was added to the samples before subjecting to heat. Gradient thermal cycler (C1000 Touch, Bio-Rad) was used to heat samples at 42, 57, 66, 72, 77 and 85° C. for 3 min and chilled on ice for 5 min. Then, samples were centrifuged at 14,000 rpm for 20 min at 4° C. Supernatants were carefully removed and analyzed by Western blotting analysis."}, "[2]": {"biological_target": "human PARG (Homo sapiens (Human), UniProt Q86W56)", "sequence (Q86W56 389-976)": "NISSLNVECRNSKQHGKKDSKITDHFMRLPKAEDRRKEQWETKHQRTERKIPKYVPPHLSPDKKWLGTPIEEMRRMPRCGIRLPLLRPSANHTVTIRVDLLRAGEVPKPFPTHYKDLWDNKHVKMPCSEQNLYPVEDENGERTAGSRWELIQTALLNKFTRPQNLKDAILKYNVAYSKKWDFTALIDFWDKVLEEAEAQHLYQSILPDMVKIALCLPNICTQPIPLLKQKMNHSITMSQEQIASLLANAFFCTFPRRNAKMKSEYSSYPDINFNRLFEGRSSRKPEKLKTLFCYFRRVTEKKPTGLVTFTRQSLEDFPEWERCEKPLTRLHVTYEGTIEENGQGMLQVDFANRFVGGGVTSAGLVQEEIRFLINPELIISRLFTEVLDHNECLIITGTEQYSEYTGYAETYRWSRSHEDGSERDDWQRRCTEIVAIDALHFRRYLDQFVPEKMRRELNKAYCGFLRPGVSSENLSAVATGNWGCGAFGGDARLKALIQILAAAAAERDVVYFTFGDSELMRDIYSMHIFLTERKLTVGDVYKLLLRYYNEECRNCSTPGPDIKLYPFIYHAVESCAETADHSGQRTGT", "test": "Gel-based PARG activity assay", "assay_type": "biochemical", "description": "FIGS. 9a & 9b show structure-activity relationships (SAR) of compounds from five main chemotypes. (FIG. 9a) A total of 34 representative HTS hits and commercially available analogues from each chemotype (FIG. 7 and FIG. 29) were analyzed using the gel-based PARG activity assay. This gel-based assay directly monitors the change of PARylation status of PARP1 as a substrate of PARG. […] The reaction was quenched after a 30 min incubation at room temperature by adding SDS-PAGE sample buffer. PARylated PARP1C runs as a smear on SDS-PAGE that is reduced to a single band by PARG treatment. […] (FIG. 9b) Quantification of the dose-response PARG inhibition by JA2-3 using the gel-based PARG activity assay. hPARG (1 nM) was preincubated with increasing concentrations (0.032-1 μM) of JA2-3 for 1 hr at room temperature before PARylated PARP1C (500 nM) was added. The reaction was quenched after a 30 min incubation at room temperature. PARylated PARP1C migrates slower than unmodified PARP1C and was quantified using ImageJ. To determine the IC50 value, the dose-response data were plotted as a function of JA2-3 concentration and fitted to the four-parameter logistic equation using SigmaPlot. The rate of the PARG-dependent signal loss in the TR-FRET PAR turnover assay is not equivalent to the steady-state rate of PAR turnover, because the TR-FRET assay can't detect signal loss until the length of PAR chains become shorter than 7 ADP-ribose units. Therefore, the gel-based PARG activity assay to accurately determine the IC50 values throughout the present disclosure.\nGel-based PARG activity assay. PARP1C (2 μM) is enzymatically auto-modified in a reaction containing the PARP1 DBD (2 μM), a 24 mer nicked DNA oligo (2 μM), and NAD+(300 μM) for 1 hr at 37° C., as described previously (Kim et al., 2012). Human PARG^389-976 (1 nM) was pre-incubated with compounds for 1 hr at room temperature. The reaction was initiated by addition of PARylated PARP1 (final concentration of 500 nM) and quenched after 30 min incubation at room temperature by adding SDS-PAGE sample buffer. The gel was visualized by sypro-ruby staining (Kim et al., 2012) and the retained PARylated PARP1C species were quantified using ImageJ (Schneider et al., 2012).\nPARylated PARP1C that migrates slower than unmodified PARP1C was quantified. […] The IC50 values were determined by fitting the dose-response data for each compound to a four-parameter logistic equation using SigmaPlot (Systat Software Inc.).\nTo test specificity of JA2131, human PARG^389-976 (1 nM) was pre-incubated with JA2131 (5, 10, and 20 μM) in the presence and absence of 0.1% Triton-X 100 or 0.1 mg/ml BSA for 1 hr at room temperature. The reaction was initiated, quenched, visualized, and quantified as described above."}, "[3]": {"biological_target": "PARG proteins in PC3 cells (Homo sapiens (Human), UniProt Q86W56)", "sequence (Q86W56 whole entry)": "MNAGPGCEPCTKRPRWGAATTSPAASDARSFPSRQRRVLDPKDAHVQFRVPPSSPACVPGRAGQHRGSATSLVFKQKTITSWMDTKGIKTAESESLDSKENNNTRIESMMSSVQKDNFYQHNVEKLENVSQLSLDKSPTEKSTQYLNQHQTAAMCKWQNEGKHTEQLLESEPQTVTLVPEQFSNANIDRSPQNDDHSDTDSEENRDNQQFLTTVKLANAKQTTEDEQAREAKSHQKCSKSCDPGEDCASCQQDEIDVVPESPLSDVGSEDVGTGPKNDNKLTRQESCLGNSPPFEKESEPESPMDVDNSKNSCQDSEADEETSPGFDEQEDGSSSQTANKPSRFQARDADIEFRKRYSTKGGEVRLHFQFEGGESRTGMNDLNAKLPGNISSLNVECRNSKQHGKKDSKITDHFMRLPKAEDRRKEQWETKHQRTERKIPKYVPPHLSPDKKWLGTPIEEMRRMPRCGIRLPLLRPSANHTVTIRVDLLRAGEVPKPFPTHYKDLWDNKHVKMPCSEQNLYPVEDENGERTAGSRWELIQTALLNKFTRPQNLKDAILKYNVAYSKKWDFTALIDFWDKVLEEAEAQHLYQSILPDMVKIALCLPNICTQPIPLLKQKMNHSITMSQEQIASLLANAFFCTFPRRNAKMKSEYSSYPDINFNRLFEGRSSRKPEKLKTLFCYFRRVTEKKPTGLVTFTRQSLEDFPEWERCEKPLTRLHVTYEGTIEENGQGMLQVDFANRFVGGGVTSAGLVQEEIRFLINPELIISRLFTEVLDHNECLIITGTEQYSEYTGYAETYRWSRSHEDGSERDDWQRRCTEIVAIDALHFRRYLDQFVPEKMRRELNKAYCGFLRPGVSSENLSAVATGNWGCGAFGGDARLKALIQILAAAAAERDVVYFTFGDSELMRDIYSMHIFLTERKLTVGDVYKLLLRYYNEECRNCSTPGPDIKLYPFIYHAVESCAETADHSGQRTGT", "test": "Cellular thermal shift assay (CETSA), PARG", "assay_type": "cell-based", "details": "10 μM, 2 h", "description": "as §1, §2"}}, "data": [{"smiles": "O=C1C(Cl)=C(Cl)C(Cl)(Cl)C(Cl)=C1Cl", "note": "[JA2131]", "values": [{"measurement": "change in thermal stability of PCNA control", "setting": "[1]", "value": "no significant change"}, {"measurement": "effect of detergent or non-specific protein on PARG inhibitory potency", "setting": "[2]; 0.1% Triton-X 100 or 0.1 mg/ml BSA, JA2131 5, 10, 20 μM", "value": "Neither the addition of Triton-X 100 nor BSA significantly altered the inhibitory potency"}, {"measurement": "IC50 of PARG inhibition", "setting": "[2]; hPARG 1 nM, PARylated PARP1C 500 nM", "value": "sub-micromolar"}, {"measurement": "IC50", "setting": "[2]; hPARG 1 nM, PARylated PARP1C 500 nM, read-out: IC50 of PARG inhibition", "value": 400, "unit": "nM"}, {"measurement": "increase in potency of JA2131 (6′-thiocarbonyl) in comparison to JA2120 (6′-carbonyl)", "setting": "[2]; ratio of IC50 values", "value": "more than 50 fold"}, {"measurement": "thermal stabilization of PARG proteins in cells", "setting": "[3]", "value": 9, "unit": "°C"}]}]}
